# In patent publication US7989422B2, “Antibacterial agents” (Alchemia Limited, priority 2005, dated 2011):
# Columns and labels:
# Format in all cases: cell-based
# [1] = test system: Enterococcus faecalis ATCC 29212; assay: MIC against E. faecalis, microbroth dilution; details: MIC class
# Procedure: (§1) Testing was conducted to determine the in vitro antimicrobial activity of a series of compounds synthesised by Alchemia Pty Ltd. The antimicrobial activity of each compound was determined at a single concentration (128 μg/mL) in Mueller Hinton (MH) broth against the ATCC type strain of Staphylococcus aureus. […] Compounds showing activity at concentrations up to 32-64 μg/mL in the presence/absence of serum were then tested for MIC activity against a standard set of 5 microorganisms comprising of ATCC type strains of MRSA, Enterococcus faecalis, Enterococcus faecium, VRE and Escherichia coli. CLSI (formerly NCCLS) microbroth dilution technique was used.
# (§2) Each compound is initially dissolved in 100 μL of DMSO. Each solution is then diluted further in 0.9 mL of sterile MH broth to give a total volume of 1 mL (1000 μg/mL) This stock solution is then further diluted in MH broth to give a test solution with final concentration of 128 μg/mL using the following formula: 0.5 ml stock in 3.4 ml MH broth
# (§3) Each test organism was subcultured from the −70° C. deep freezer onto horse blood agar. The plates were streaked to obtain isolated colonies and incubated at 35° C. in non-CO2 incubator for 24 hours. A second subculture was carried out onto horse blood agar. For each test organism, 1-2 colonies were selected from an 18-24 hour culture and inoculated into 2 ml sterile MH broth. The turbidity was adjusted to 0.5 McFarland standard.
# (§4) A 1:10 dilution in MH broth (200 μL in 2 ml MH) of the 0.5 McFarland control was prepared. 5 μL of this diluted solution was used to inoculate the trays.
# (§5) The trays were prepared in a similar way as mentioned above and incubated at 35° C. in a non-CO2 incubator for 18-24 hours. The plates were examined for growth after the incubation time.
# (§6) After 18-24 hour incubation 5 μL from each well was then inoculated onto horse blood agar and incubated for 18-24 hours at 35° C. in a non-CO2 incubator.
# (§7) If the test organism is sensitive to the compound in the broth the growth will be inhibited. Similarly, if the organism grows on the antibiotic containing medium then it is resistant to this particular antibiotic.
# E. Faecium 51299 VanB = assay: MIC against vancomycin-resistant enterococcus 51299 (VanB), microbroth dilution; details: MIC class; ATCC 51299 VanB
# Procedure: as §1, §2, §3, §4, §5, §6, §7
# [2] = test system: Staphylococcus aureus ATCC 25923; assay: MIC against S. aureus, microbroth dilution in MH broth, without or with 5% horse serum; details: MIC class; S. aureus ATCC 25923
# Procedure: as §1, §2, §3, §4
# 100 μL of sterile MH broth was added in columns 2-12. 200 μL of test solution was added in column 1. 100 μL was transferred in column 2 giving a ½ dilution. 100 μL from column 2 was then transferred to column 3 (¼ dilution). This dilution was carried on until column 12. A second tray containing the same test solution was inoculated in a similar manner using sterile MH broth with 5% heat inactivated horse serum. 5 μL of organism solution was then added to each well. The plates were then sealed and incubated at 35° C. in a non-CO2 incubator for 18-24 hours. The plates were examined for growth after the incubation time.
# as §7
# [3] = test system: Enterococcus faecium ATCC 35667; assay: MIC against E. faecium, microbroth dilution; details: MIC class
# Procedure: as §1, §2, §3, §4, §5, §6, §7
# [4] = test system: Staphylococcus aureus (MRSA) ATCC 33591; assay: MIC against MRSA, microbroth dilution; details: MIC class
# Procedure: as §1, §2, §3, §4, §5, §6, §7
smiles,measurement,setting,value
CCCCCCCCCCCCC(N)C(=O)NC1C(CO)OCC(n2c(N)nc3cc(C(F)(F)F)ccc32)C1O (stereo not drawn) [Compound 183],E. Fecalis 29212 activity,[1],− (“−”: MIC (μg/mL): MIC > 64)
same,E. Faecium 51299 VanB activity,E. Faecium 51299 VanB,− (“−”: MIC (μg/mL): MIC > 64)
same,S. Aureus 25923 activity,[2],+ (“+”: MIC (μg/mL): 64 ≧ MIC > 16)
same,E. Faecium 35667 activity,[3],++ (“++”: MIC (μg/mL): MIC ≦ 16)
same,S. Aureus 33591 MRSA activity,[4],− (“−”: MIC (μg/mL): MIC > 64)
CCCCCCCCCCCCC(N)C(=O)NC1C(CO)OCC(n2c(O)nc3cc(C(F)(F)F)cc(Cl)c32)C1O (stereo not drawn) [Compound 185],E. Fecalis 29212 activity,[1],++ (“++”: MIC (μg/mL): MIC ≦ 16)
same,E. Faecium 51299 VanB activity,E. Faecium 51299 VanB,+ (“+”: MIC (μg/mL): 64 ≧ MIC > 16)
same,S. Aureus 25923 activity,[2],+ (“+”: MIC (μg/mL): 64 ≧ MIC > 16)
same,E. Faecium 35667 activity,[3],++ (“++”: MIC (μg/mL): MIC ≦ 16)
same,S. Aureus 33591 MRSA activity,[4],++ (“++”: MIC (μg/mL): MIC ≦ 16)
CCCCCCCCCCCCC(N)C(=O)NC1C(CO)OCC(n2c(S)nc3cc(C(F)(F)F)cc(Cl)c32)C1O (stereo not drawn) [Compound 186],E. Fecalis 29212 activity,[1],+ (“+”: MIC (μg/mL): 64 ≧ MIC > 16)
same,E. Faecium 51299 VanB activity,E. Faecium 51299 VanB,− (“−”: MIC (μg/mL): MIC > 64)
same,S. Aureus 25923 activity,[2],++ (“++”: MIC (μg/mL): MIC ≦ 16)
same,E. Faecium 35667 activity,[3],− (“−”: MIC (μg/mL): MIC > 64)
same,S. Aureus 33591 MRSA activity,[4],+ (“+”: MIC (μg/mL): 64 ≧ MIC > 16)
CCCCCCCCCCCCC(N)C(=O)NC1C(CO)OCC(n2c(N)nc3cc(C(F)(F)F)cc(Cl)c32)C1O (stereo not drawn) [Compound 187],E. Fecalis 29212 activity,[1],++ (“++”: MIC (μg/mL): MIC ≦ 16)
same,E. Faecium 51299 VanB activity,E. Faecium 51299 VanB,++ (“++”: MIC (μg/mL): MIC ≦ 16)
same,S. Aureus 25923 activity,[2],++ (“++”: MIC (μg/mL): MIC ≦ 16)
same,E. Faecium 35667 activity,[3],+ (“+”: MIC (μg/mL): 64 ≧ MIC > 16)
same,S. Aureus 33591 MRSA activity,[4],++ (“++”: MIC (μg/mL): MIC ≦ 16)
CCCCCCCCCCCCC(N)C(=O)NC1C(CO)OCC(n2cnc3cc(C(F)(F)F)cc(Cl)c32)C1O (stereo not drawn) [Compound 188],E. Fecalis 29212 activity,[1],+ (“+”: MIC (μg/mL): 64 ≧ MIC > 16)
same,E. Faecium 51299 VanB activity,E. Faecium 51299 VanB,+ (“+”: MIC (μg/mL): 64 ≧ MIC > 16)
same,S. Aureus 25923 activity,[2],+ (“+”: MIC (μg/mL): 64 ≧ MIC > 16)
same,E. Faecium 35667 activity,[3],− (“−”: MIC (μg/mL): MIC > 64)
same,S. Aureus 33591 MRSA activity,[4],+ (“+”: MIC (μg/mL): 64 ≧ MIC > 16)
CCCCCCCCCCCCC(N)C(=O)NC1C(CO)OCC(Nc2ccc(C(F)(F)F)cc2[N+](=O)[O-])C1O (stereo not drawn) [Compound 197],E. Fecalis 29212 activity,[1],+ (“+”: MIC (μg/mL): 64 ≧ MIC > 16)
same,E. Faecium 51299 VanB activity,E. Faecium 51299 VanB,+ (“+”: MIC (μg/mL): 64 ≧ MIC > 16)
same,S. Aureus 25923 activity,[2],++ (“++”: MIC (μg/mL): MIC ≦ 16)
same,E. Faecium 35667 activity,[3],+ (“+”: MIC (μg/mL): 64 ≧ MIC > 16)
same,S. Aureus 33591 MRSA activity,[4],+ (“+”: MIC (μg/mL): 64 ≧ MIC > 16)
CCCCCCCCCCCCC(N)C(=O)NC1C(CO)OCC(Nc2c(Cl)cc(C(F)(F)F)cc2[N+](=O)[O-])C1O (stereo not drawn) [Compound 198],E. Fecalis 29212 activity,[1],+ (“+”: MIC (μg/mL): 64 ≧ MIC > 16)
same,E. Faecium 51299 VanB activity,E. Faecium 51299 VanB,+ (“+”: MIC (μg/mL): 64 ≧ MIC > 16)
same,S. Aureus 25923 activity,[2],+ (“+”: MIC (μg/mL): 64 ≧ MIC > 16)
same,E. Faecium 35667 activity,[3],+ (“+”: MIC (μg/mL): 64 ≧ MIC > 16)
same,S. Aureus 33591 MRSA activity,[4],+ (“+”: MIC (μg/mL): 64 ≧ MIC > 16)
Nc1cc(C(F)(F)F)cc(Cl)c1NC1COC(CO)C(NC(=O)c2ccc(-c3ccccc3)cc2)C1O (stereo not drawn) [Compound 200],E. Fecalis 29212 activity,[1],− (“−”: MIC (μg/mL): MIC > 64)
same,E. Faecium 51299 VanB activity,E. Faecium 51299 VanB,− (“−”: MIC (μg/mL): MIC > 64)
same,S. Aureus 25923 activity,[2],− (“−”: MIC (μg/mL): MIC > 64)
same,E. Faecium 35667 activity,[3],− (“−”: MIC (μg/mL): MIC > 64)
same,S. Aureus 33591 MRSA activity,[4],+ (“+”: MIC (μg/mL): 64 ≧ MIC > 16)
Nc1cc(C(F)(F)F)cc(Cl)c1NC1COC(CO)C(NC(=O)C(N)Cc2ccc(-c3ccccc3)cc2)C1O (stereo not drawn) [Compound 202],E. Fecalis 29212 activity,[1],− (“−”: MIC (μg/mL): MIC > 64)
same,E. Faecium 51299 VanB activity,E. Faecium 51299 VanB,− (“−”: MIC (μg/mL): MIC > 64)
same,S. Aureus 25923 activity,[2],+ (“+”: MIC (μg/mL): 64 ≧ MIC > 16)
same,E. Faecium 35667 activity,[3],+ (“+”: MIC (μg/mL): 64 ≧ MIC > 16)
same,S. Aureus 33591 MRSA activity,[4],+ (“+”: MIC (μg/mL): 64 ≧ MIC > 16)
